Consider four compounds from US11000033B2, “Ketone or oxime compound, and herbicide” (NISSAN CHEMICAL CORPORATION, priority 2014, dated 2021).

Common to all, as to assay type: in vivo
For data set [1], the system named is directly sowed rice plant. Kind of data set: Test Example 3: effect on crop by foliage application, Wagner pot (symbol b). As to conditions: application herbicide amount 320 g/ha; for b (directly sowed rice plant) effect on crop grade: Table 24. In short, it runs like this: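 Wagner pot (1/10000 are), alluvial soil, submerged 0.1–0.5 cm; sown E. crus-galli var. crus-galli, L. chinensis, C. difformis, rice; greenhouse 25–30 °C.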

Data set [2] deals with soybean. Kind of data set: Test Example 4: effect on crop by soil treatment (symbol d). The method in brief: (§1)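 Grown at 25° C. to 30° C. in a greenhouse, the crops came from seed sown spot-wise in sterilized diluvial soil under roughly 1.5 cm of covering soil.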
Another data set relates to Veronica persica. Kind of data set: Test Example 5: herbicidal effect by foliage application, plastic box (symbol R). As to conditions: 320 g/ha, 3 weeks after application. The method in brief:
(§2)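 Visual herbicidal score, taken three weeks post-application, of seedlings sprayed on the foliage with water-diluted emulsion at a predetermined amount; plants were 14 days old, greenhouse-raised at 25° C. to 30° C.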

The next data set has as its system Amaranthus retroflexus. Kind of data set: Test Example 5: herbicidal effect by foliage application, plastic box (symbol N). The note with it: 320 g/ha, 3 weeks after application. In short, it runs like this:
as §2

The test system of a further data set is Lolium multiflorum Lam. Kind of data set: Test Example 5: herbicidal effect by foliage application, plastic box (symbol K). The note with it: 320 g/ha, 3 weeks after application. In short, it runs like this:
as §2

The subject of the next data set is Galium spurium. As to the kind of experiment: Test Example 5: herbicidal effect by foliage application, plastic box (symbol Q). As to conditions: 320 g/ha, 3 weeks after application. The method in brief:
as §2

A further data set has as its system beet. Kind of data set: Test Example 5: effect on crop by foliage application, plastic box (symbol f). As to conditions: 320 g/ha, 3 weeks after application. The method in brief: (§3)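 Crop seed is sown alongside grass and broadleaf weed species in spots in sterilized diluvial soil, then covered to a depth of about 1.5 cm. Plants grow in a greenhouse kept at 25° C. to 30° C.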

Another data set deals with Digitaria ciliaris. Kind of data set: Test Example 4: herbicidal effect by soil treatment (symbol F). The method in brief: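 Seeds were sown in sterilized diluvial soil, covered with about 1.5 cm of soil, and the soil surface was sprayed with a water-diluted emulsion of the compound at a predetermined rate. Plants grew in a greenhouse at 25° C. to 30° C.; effects were scored visually 3 weeks after application.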

In data set [3] the test system is Echinochloa oryzacola Vasing. Kind of data set: Test Example 1: herbicidal activity, application before weed generation in submerged conditions (symbol A). The note with it: application herbicide amount 320 g/ha. In short, it runs like this:
(§4)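 Weeds are sown into submerged alluvial soil alongside transplanted 2.5-leaf rice, and the compound, as an emulsion diluted to a set rate, is applied onto the water before emergence. Rating on the 0–5 herbicidal-ratio scale follows 3 weeks of greenhouse growth at 25–30 °C.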

The subject of data set [4] is wheat. As to the kind of experiment: Test Example 4: effect on crop by soil treatment (symbol e). The method in brief:
as §1

The subject of data set [5] is Echinochloa crus-galli var. crus-galli. Kind of data set: Test Example 5: herbicidal effect by foliage application, plastic box (symbol H). The note with it: 320 g/ha, 3 weeks after application. The method in brief:
as §2

Data set [6] has as its system soybean. As to the kind of experiment: Test Example 5: effect on crop by foliage application, plastic box (symbol d). The note with it: 320 g/ha, 3 weeks after application. The method in brief:
as §3

The next data set concerns rapeseed. Kind of data set: Test Example 4: effect on crop by soil treatment (symbol g). In short, it runs like this:
as §1

In data set [7] the test system is wheat. As to the kind of experiment: Test Example 5: effect on crop by foliage application, plastic box (symbol e). As to conditions: 320 g/ha, 3 weeks after application. The method in brief:
as §3

Another data set concerns Chenopodium album. As to the kind of experiment: Test Example 5: herbicidal effect by foliage application, plastic box (symbol O). The note with it: 320 g/ha, 3 weeks after application. The method in brief: as §2
In a further data set the test system is Monochoria vaginalis. Kind of data set: Test Example 1: herbicidal activity, application before weed generation in submerged conditions (symbol C). As to conditions: application herbicide amount 320 g/ha. In short, it runs like this:
as §4

[8] abbreviates: application herbicide amount 320 g/ha.

Take `CC(CC1CC(O)=C(c2c(C)cc(-n3cc(Cl)cn3)cc2C)C1=O)=NOCC(F)(F)F` (stereo not shown) [9-010]: the “b (directly sowed rice plant) effect on crop grade” value in data set [1] is given as 5 (Herbicidal ratio of 90% or more (almost completely withered)). The “Effect on crop grade, d: soybean” value in the data set with soybean [2] (setting [8]) is given as 0 (Herbicidal ratio of 5% or lower (almost no effect)). For the same compound, the “R: Veronica persica, herbicidal effect grade” value with Veronica persica was 3 (Herbicidal ratio of 40% or higher and lower than 70%). For the same compound, the “N: Amaranthus retroflexus, herbicidal effect grade” value in the data set with Amaranthus retroflexus is 3 (Herbicidal ratio of 40% or higher and lower than 70%). Also, in the data set on Lolium multiflorum Lam., the “K: Lolium multiflorum Lam., herbicidal effect grade” value was 5 (Herbicidal ratio of 90% or more (almost completely withered)). Also, the “Q: Galium spurium, herbicidal effect grade” value with Galium spurium is 3 (Herbicidal ratio of 40% or higher and lower than 70%). Also, the “f: beet, effect on crop grade” value with beet was 0 (Herbicidal ratio of 5% or lower (almost no effect)). For the same compound, the “Herbicidal effect grade, F: Digitaria ciliaris” value with Digitaria ciliaris (setting [8]) is 5 (Herbicidal ratio of 90% or more (almost completely withered)). Besides, the “A (Echinochloa oryzacola Vasing.) herbicidal effect grade” value in [3] is recorded as 5 (Herbicidal ratio of 90% or more (almost completely withered)). The “Effect on crop grade, e: wheat” value in the data set with wheat [4] (setting [8]) was 0 (Herbicidal ratio of 5% or lower (almost no effect)). In addition, the “H: Echinochloa crus-galli var. crus-galli, herbicidal effect grade” value in data set [5] is listed as 5 (Herbicidal ratio of 90% or more (almost completely withered)). For the same compound, the “d: soybean, effect on crop grade” value with soybean [6] is 2 (Herbicidal ratio of 20% or higher and lower than 40%). Besides, in the data set on rapeseed (setting [8]), the “Effect on crop grade, g: rapeseed” value was 0 (Herbicidal ratio of 5% or lower (almost no effect)). Further, in the data set with wheat [7], the “e: wheat, effect on crop grade” value is 0 (Herbicidal ratio of 5% or lower (almost no effect)). Besides, the “O: Chenopodium album, herbicidal effect grade” value in the data set on Chenopodium album was 3 (Herbicidal ratio of 40% or higher and lower than 70%). Besides, in the data set with Monochoria vaginalis, the “C (Monochoria vaginalis) herbicidal effect grade” value was 4 (Herbicidal ratio of 70% or higher and lower than 90%).

Regarding `CC#Cc1cc(C)c(C2=C(O)CC(CC(=NOCCOC)C(C)C)C2=O)c(C)c1` (stereo not shown) [9-023], the “b (directly sowed rice plant) effect on crop grade” value in [1] was 5 (Herbicidal ratio of 90% or more (almost completely withered)). Moreover, the “Effect on crop grade, d: soybean” value with soybean [2] (setting [8]) is recorded as 0 (Herbicidal ratio of 5% or lower (almost no effect)). Further, in the data set on Veronica persica, the “R: Veronica persica, herbicidal effect grade” value was 3 (Herbicidal ratio of 40% or higher and lower than 70%). The “N: Amaranthus retroflexus, herbicidal effect grade” value in the data set with Amaranthus retroflexus is on record as 0 (Herbicidal ratio of 5% or lower (almost no effect)). Moreover, the “K: Lolium multiflorum Lam., herbicidal effect grade” value in the data set on Lolium multiflorum Lam. was 5 (Herbicidal ratio of 90% or more (almost completely withered)). In addition, the “Q: Galium spurium, herbicidal effect grade” value in the data set on Galium spurium was 0 (Herbicidal ratio of 5% or lower (almost no effect)). The “f: beet, effect on crop grade” value in the data set on beet is reported as 0 (Herbicidal ratio of 5% or lower (almost no effect)). Moreover, the “Herbicidal effect grade, F: Digitaria ciliaris” value in the data set on Digitaria ciliaris (setting [8]) is on record as 5 (Herbicidal ratio of 90% or more (almost completely withered)). In addition, the “A (Echinochloa oryzacola Vasing.) herbicidal effect grade” value in data set [3] is 5 (Herbicidal ratio of 90% or more (almost completely withered)). For the same compound, the “Effect on crop grade, e: wheat” value in the data set with wheat [4] (setting [8]) was 3 (Herbicidal ratio of 40% or higher and lower than 70%). Moreover, the “H: Echinochloa crus-galli var. crus-galli, herbicidal effect grade” value in data set [5] is reported as 5 (Herbicidal ratio of 90% or more (almost completely withered)). In addition, the “d: soybean, effect on crop grade” value in the data set with soybean [6] was 0 (Herbicidal ratio of 5% or lower (almost no effect)). Moreover, in the data set on rapeseed (setting [8]), the “Effect on crop grade, g: rapeseed” value was 4 (Herbicidal ratio of 70% or higher and lower than 90%). In addition, in the data set on wheat [7], the “e: wheat, effect on crop grade” value was 1 (Herbicidal ratio of 5% or higher and lower than 20%). Also, in the data set with Chenopodium album, the “O: Chenopodium album, herbicidal effect grade” value is 3 (Herbicidal ratio of 40% or higher and lower than 70%). Further, the “C (Monochoria vaginalis) herbicidal effect grade” value in the data set with Monochoria vaginalis is 4 (Herbicidal ratio of 70% or higher and lower than 90%).

`CCC(CC1CC(O)=C(c2c(C)cc(-c3ccccc3)cc2OC)C1=O)=NOC` (mixture of isomers) [13-004]: the “b (directly sowed rice plant) effect on crop grade” value in [1] is listed as 5 (Herbicidal ratio of 90% or more (almost completely withered)). Also, the “d: soybean, effect on crop grade” value in the data set with soybean [2] (setting [8]) is 1 (Herbicidal ratio of 5% or higher and lower than 20%); in the data set on soybean [6], 1 (Herbicidal ratio of 5% or higher and lower than 20%). Besides, in the data set with Veronica persica, the “R: Veronica persica, herbicidal effect grade” value is 3 (Herbicidal ratio of 40% or higher and lower than 70%). The “N: Amaranthus retroflexus, herbicidal effect grade” value in the data set with Amaranthus retroflexus was 0 (Herbicidal ratio of 5% or lower (almost no effect)). Also, the “K: Lolium multiflorum Lam., herbicidal effect grade” value in the data set on Lolium multiflorum Lam. is on record as 5 (Herbicidal ratio of 90% or more (almost completely withered)). Moreover, the “Q: Galium spurium, herbicidal effect grade” value in the data set with Galium spurium was 4 (Herbicidal ratio of 70% or higher and lower than 90%). For the same compound, in the data set with beet, the “f: beet, effect on crop grade” value is reported as 0 (Herbicidal ratio of 5% or lower (almost no effect)). Also, the “F: Digitaria ciliaris, herbicidal effect grade” value with Digitaria ciliaris (setting [8]) is reported as 5 (Herbicidal ratio of 90% or more (almost completely withered)). Moreover, the “A (Echinochloa oryzacola Vasing.) herbicidal effect grade” value in data set [3] was 5 (Herbicidal ratio of 90% or more (almost completely withered)). Moreover, the “e: wheat, effect on crop grade” value with wheat [4] (setting [8]) and in the data set with wheat [7] was 5 (Herbicidal ratio of 90% or more (almost completely withered)) throughout. In addition, the “H: Echinochloa crus-galli var. crus-galli, herbicidal effect grade” value in data set [5] is listed as 5 (Herbicidal ratio of 90% or more (almost completely withered)). Besides, the “g: rapeseed, effect on crop grade” value in the data set on rapeseed (setting [8]) was 4 (Herbicidal ratio of 70% or higher and lower than 90%). Moreover, the “O: Chenopodium album, herbicidal effect grade” value in the data set on Chenopodium album is 4 (Herbicidal ratio of 70% or higher and lower than 90%). In the data set with Monochoria vaginalis, the “C (Monochoria vaginalis) herbicidal effect grade” value is listed as 5 (Herbicidal ratio of 90% or more (almost completely withered)).

Turning to `CC(CC1CC(O)=C(c2c(C)cc(C)cc2C)C1=O)=NOCC(C)Br` (stereo not shown) [1-135], the “effect on crop b (directly sowed rice plant), grade 0-5” value in [1] is on record as 5 (Herbicidal ratio of 90% or more (almost completely withered)). The “d: soybean, effect grade on crop” value in the data set with soybean [2] (320 g/ha) is given as 0 (Herbicidal ratio of 5% or lower (almost no effect)). In the data set with Veronica persica, the “R: Veronica persica, herbicidal effect (criteria 0-5)” value is 3 (Herbicidal ratio of 40% or higher and lower than 70%). Besides, the “N: Amaranthus retroflexus, herbicidal effect (criteria 0-5)” value in the data set on Amaranthus retroflexus is 0 (Herbicidal ratio of 5% or lower (almost no effect)). Also, in the data set with Lolium multiflorum Lam., the “K: Lolium multiflorum Lam., herbicidal effect (criteria 0-5)” value is given as 5 (Herbicidal ratio of 90% or more (almost completely withered)). Besides, the “Q: Galium spurium, herbicidal effect (criteria 0-5)” value in the data set on Galium spurium was 0 (Herbicidal ratio of 5% or lower (almost no effect)). The “f: beet, effect on crop (criteria 0-5)” value in the data set on beet is 0 (Herbicidal ratio of 5% or lower (almost no effect)). Moreover, in the data set on Digitaria ciliaris (320 g/ha), the “F: Digitaria ciliaris, herbicidal effect grade” value is given as 5 (Herbicidal ratio of 90% or more (almost completely withered)). Also, the “Herbicidal effect grade, A: Echinochloa oryzacola Vasing.” value in data set [3] is given as 5 (Herbicidal ratio of 90% or more (almost completely withered)). For the same compound, the “e: wheat, effect grade on crop” value in the data set with wheat [4] (320 g/ha) is 0 (Herbicidal ratio of 5% or lower (almost no effect)). Moreover, in [5], the “H: Echinochloa crus-galli var. crus-galli, herbicidal effect (criteria 0-5)” value is 5 (Herbicidal ratio of 90% or more (almost completely withered)). For the same compound, the “d: soybean, effect on crop (criteria 0-5)” value in the data set on soybean [6] is 1 (Herbicidal ratio of 5% or higher and lower than 20%). In the data set on rapeseed (320 g/ha), the “g: rapeseed, effect grade on crop” value is 2 (Herbicidal ratio of 20% or higher and lower than 40%). Further, the “e: wheat, effect on crop (criteria 0-5)” value in the data set with wheat [7] was 2 (Herbicidal ratio of 20% or higher and lower than 40%). The “O: Chenopodium album, herbicidal effect (criteria 0-5)” value with Chenopodium album is given as 5 (Herbicidal ratio of 90% or more (almost completely withered)). For the same compound, in the data set with Monochoria vaginalis, the “Herbicidal effect grade, C: Monochoria vaginalis” value is 1 (Herbicidal ratio of 5% or higher and lower than 20%).
